From patent US5763599A, “Nucleoside derivatives with photolabile protective groups” (Pfleiderer; Wolfgang, priority 1994, dated 1998)
Values belong to the compound of their own block, whether it stands above or below them.

Assay: Irradiation experiments: photolytic cleavage of the 5' protective group with polychromatic light, followed by HPLC
Format: physicochemical
Details: for Concentration Thymidine (released): from 0.2 mM CNPEOC-T; for Relative Quantity Thymidine (released): of 0.2 mM; for Concentration CNPEOC-T: start 0.2 mM; for Relative Quantity CNPEOC-T: 200 µM; for Photolytic cleavage of the 5' protective group in relation to rapidity and high yields: compared with V1 and V2
Method: The corresponding protected thymidine nucleosides were irradiated by means of an irradiation apparatus which was composed of a Hg very high pressure lamp (OSRAM HBO, 200 W), a focusing lens, a shutter with an electronic control device for setting the shutter times and a temperature-controlled cuvette holder. A heat filter (0.032 molar CuSO4 solution) between the lamp and sample was also installed. 0.2 mM solutions of the nucleosides in MeOH/H2 O 1:1 were irradiated at 20° to 30° C. with the entire lamp spectrum (polychromatic light with wavelengths of λ>289 nm).
The cleavage of the protective groups was followed quantitatively by HPLC. The HPLC unit comprised of the following devices: Merck-Hitachi L-6200 Intelligent Pump, Merck-Hitachi Intelligent Auto Sampler AS 4000, Merck-Hitachi Interface, Merck Lichrosorb column RP 18, 125×5 mm. The ultra-violet/VIS spectrophotometer was a Kontron UVIKON 730 LC. Detection took place at 260 nm. The integration of the chromatogram signals took place by means of Merck software: D-6000 HPLC Manager.
MeOH/H2 O mixtures were always used for chromatography. The following gradient was used (flow: 1 ml/min)
Calibration curves for thymidine and the protected nucleosides were compiled by injecting dilution series into the chromatograph.
Samples (loop volume: 20 μl) were taken from the irradiated solutions after specific time intervals. Each sample was injected twice into the chromatograph. The mean values of these dual determinations were used for further evaluation. The peak areas of the chromatograms were converted into the concentrations of protected nucleosides or of thymidine by means of the above-compiled calibration curves. The concentration values obtained in this manner were divided by the maximum achievable concentration of 0.2 mM (=concentration of the protected nucleosides at the start of irradiation) and plotted against the irradiation time as a "relative quantity" in percent.
Linear regression yielded: y=4.96777·10^-4 +3.85757 10^-7 ·x with x=peak area and y=thymidine concentration; r=0.9999
Linear regression yielded: y=9.2999·10^-4 +3.22516 10^-7 ·x with x=peak area and y=CNPEOC-T concentration; r=0.9998.
With regard to several other derivatives according to the invention and to the two comparative compounds V1 (5'-O-(2-nitrobenzyloxycarbonyl)thymidine) and V2 (5'-O-(2.4dinitrobenzyloxycarbonyl)thymidine), the following table summarizes their results obtained according to the above method and evaluated in relation to half-life and yield percentage of deprotected nucleoside derivative, in relation to the maximum concentration achievable): […]

[1] = 0.2 mM in MeOH/H2O 1:1, 20° to 30° C., λ>289 nm

Structure (SMILES): Cc1cn([C@H]2C[C@H](O)[C@@H](COC(=O)OCCc3c([N+](=O)[O-])cccc3[N+](=O)[O-])O2)c(=O)[nH]c1=O [Compound 2, 5'-O-(2-(2,6-dinitrophenyl)ethoxycarbonyl)thymidine]
Yield of deprotected nucleoside, in relation to maximum concentration achievable [1]: 92 % Cmax
t0.5 (half-life of photolytic deprotection) [1]: 1.37 min

Structure (SMILES): Cc1cn([C@H]2C[C@H](O)[C@@H](COC(=O)OCCc3c(Cl)cccc3[N+](=O)[O-])O2)c(=O)[nH]c1=O [Compound 4, 5'-O-(2-(2-chloro-6-nitrophenyl)ethoxycarbonyl)thymidine]
Yield of deprotected nucleoside, in relation to maximum concentration achievable [1]: 86 % Cmax
Concentration Thymidine (released) (irradiation time 1 min): 32.7 µM
Relative Quantity Thymidine (released) (irradiation time 1 min): 16.3%
Concentration CNPEOC-T (irradiation time 1 min): 148.9 µM
Concentration Thymidine (released) (irradiation time 2 min): 85.8 µM
Relative Quantity Thymidine (released) (irradiation time 2 min): 42.9%
Concentration CNPEOC-T (irradiation time 2 min): 82.6 µM
Concentration Thymidine (released) (irradiation time 3 min): 88.8 µM
Relative Quantity Thymidine (released) (irradiation time 3 min): 44.4%
Concentration CNPEOC-T (irradiation time 3 min): 81.9 µM
Concentration Thymidine (released) (irradiation time 5 min): 127.8 µM
Relative Quantity Thymidine (released) (irradiation time 5 min): 63.9%
Concentration CNPEOC-T (irradiation time 5 min): 28.1 µM
Concentration Thymidine (released) (irradiation time 15 min): 167.3 µM
Relative Quantity Thymidine (released) (irradiation time 15 min): 83.7%
Concentration CNPEOC-T (irradiation time 15 min): 8.8 µM
Concentration Thymidine (released) (irradiation time 30 min): 169.3 µM
Relative Quantity Thymidine (released) (irradiation time 30 min): 84.6%
Concentration CNPEOC-T (irradiation time 30 min): 0 µM
Concentration Thymidine (released) (irradiation time 60 min): 171.1 µM
Relative Quantity Thymidine (released) (irradiation time 60 min): 85.5%
Concentration CNPEOC-T (irradiation time 60 min): 0 µM
Concentration Thymidine (released) (irradiation time 120 min): 157.7 µM
Relative Quantity Thymidine (released) (irradiation time 120 min): 78.9%
Concentration CNPEOC-T (irradiation time 120 min): 0 µM
t0.5 (half-life of photolytic deprotection) (meoh/h2o 1:1, 200 µM): 1.71 min
Relative Quantity CNPEOC-T (meoh/h2o 1:1, 1 min): 74.5%
Relative Quantity CNPEOC-T (meoh/h2o 1:1, 2 min): 41.3%
Relative Quantity CNPEOC-T (meoh/h2o 1:1, 0.05 h): 40.9%
Relative Quantity CNPEOC-T (meoh/h2o 1:1, 5 min): 14.0%
Relative Quantity CNPEOC-T (meoh/h2o 1:1, 0.25 h): 4.4%
Relative Quantity CNPEOC-T (meoh/h2o 1:1, 0.5 h): 0%
Relative Quantity CNPEOC-T (meoh/h2o 1:1, 1 h): 0%
Relative Quantity CNPEOC-T (meoh/h2o 1:1, 2 h): 0%

Structure (SMILES): Cc1cn([C@H]2C[C@H](O)[C@@H](COC(=O)OCCc3c(Br)cccc3[N+](=O)[O-])O2)c(=O)[nH]c1=O [Compound 5, 5'-O-(2-(2-bromo-6-nitrophenyl)ethoxycarbonyl)thymidine]
Yield of deprotected nucleoside, in relation to maximum concentration achievable [1]: 89 % Cmax
t0.5 (half-life of photolytic deprotection) (meoh/h2o 1:1, 200 µM): 1.71 min

Structure (SMILES): Cc1cn([C@H]2C[C@H](O)[C@@H](COC(=O)OCCc3ccccc3[N+](=O)[O-])O2)c(=O)[nH]c1=O [Compound 1, 5'-O-(2-(2-nitrophenyl)ethoxycarbonyl)thymidine]
Yield of deprotected nucleoside, in relation to maximum concentration achievable [1]: 79 % Cmax
t0.5 (half-life of photolytic deprotection) (meoh/h2o 1:1, 200 µM): 2.6 min

Structure (SMILES): COc1cc(CCOC(=O)OC[C@H]2O[C@@H](n3cc(C)c(=O)[nH]c3=O)C[C@@H]2O)c([N+](=O)[O-])cc1OC [Compound 9, 5'-O-(2-(4,5-dimethoxy-2-nitrophenyl)ethoxycarbonyl)thymidine]
Yield of deprotected nucleoside, in relation to maximum concentration achievable [1]: 77 % Cmax
t0.5 (half-life of photolytic deprotection) (meoh/h2o 1:1, 200 µM): 7.2 min

Structure (SMILES): Cc1cn([C@H]2C[C@H](O)[C@@H](COC(=O)OCCc3ccc(Cl)cc3[N+](=O)[O-])O2)c(=O)[nH]c1=O [Compound 6, 5'-O-(2-(4-chloro-2-nitrophenyl)ethoxycarbonyl)thymidine]
Yield of deprotected nucleoside, in relation to maximum concentration achievable [1]: 70 % Cmax
t0.5 (half-life of photolytic deprotection) (meoh/h2o 1:1, 200 µM): 2.3 min

Structure (SMILES): Cc1cn([C@H]2C[C@H](O)[C@@H](COC(=O)OCc3ccc([N+](=O)[O-])cc3[N+](=O)[O-])O2)c(=O)[nH]c1=O [Compound V2, 5'-O-(2.4dinitrobenzyloxycarbonyl)thymidine, reference compound]
Yield of deprotected nucleoside, in relation to maximum concentration achievable [1]: 38 % Cmax
t0.5 (half-life of photolytic deprotection) [1]: 3.3 min

Results, then the compound that gave them:

Yield of deprotected nucleoside, in relation to maximum concentration achievable [1]: 55 % Cmax
t0.5 (half-life of photolytic deprotection) (meoh/h2o 1:1, 200 µM): 2.5 min
Structure (SMILES): Cc1cn([C@H]2C[C@H](O)[C@@H](COC(=O)OCc3ccccc3[N+](=O)[O-])O2)c(=O)[nH]c1=O [Compound V1, 5'-O-(2-nitrobenzyloxycarbonyl)thymidine, reference compound]

Yield of deprotected nucleoside, in relation to maximum concentration achievable [1]: 97 % Cmax
Photolytic cleavage of the 5' protective group in relation to rapidity and high yields: clearly superior
t0.5 (half-life of photolytic deprotection) (meoh/h2o 1:1, 200 µM): 1.46 min
Structure (SMILES): Cc1cn([C@H]2C[C@H](O)[C@@H](COC(=O)OCC(Cl)c3ccccc3[N+](=O)[O-])O2)c(=O)[nH]c1=O (some centres unmarked) [Compound 11, 5'-O-(2-chloro-2-(2-nitrophenyl)ethoxycarbonyl)thymidine]

Yield of deprotected nucleoside, in relation to maximum concentration achievable [1]: 89 % Cmax
Photolytic cleavage of the 5' protective group in relation to rapidity and high yields: clearly superior
t0.5 (half-life of photolytic deprotection) (meoh/h2o 1:1, 200 µM): 0.7 min
Structure (SMILES): Cc1cn([C@H]2C[C@H](O)[C@@H](COC(=O)OCC(C)c3ccccc3[N+](=O)[O-])O2)c(=O)[nH]c1=O (some centres unmarked) [Compound 10, 5'-O-(2-(2-nitrophenyl)propoxycarbonyl)thymidine]

Yield of deprotected nucleoside, in relation to maximum concentration achievable [1]: 77 % Cmax
t0.5 (half-life of photolytic deprotection) (meoh/h2o 1:1, 200 µM): 1.68 min
Structure (SMILES): Cc1cn([C@H]2C[C@H](O)[C@@H](COC(=O)OCCc3c(Cl)cc(Cl)cc3[N+](=O)[O-])O2)c(=O)[nH]c1=O [Compound 8, 5'-O-(2-(2,4-dichloro-6-nitrophenyl)ethoxycarbonyl)thymidine]
